{
  "source": "the NIST ThermoML archive (doi:10.1021/acs.jced.6b00142)",
  "details": "Liquid, Diaphragm manometer",
  "note": "Values joined by “and” are separate entries in the source; they are usually repeats but may differ in a detail not shown here. Identical values can stand only once. Numbers after ± are expanded uncertainties.",
  "data": [
    {"smiles": "Cl[Si](Cl)(Cl)Cl", "note": "[silicon tetrachloride]", "values": [
      {"measurement": "vapor or sublimation pressure", "setting": "332.99 K", "value": "113.02 ± 2.3", "unit": "kPa"},
      {"measurement": "vapor or sublimation pressure", "setting": "340 K", "value": "139.15 ± 2.8 kPa and 138.98 ± 2.8 kPa"},
      {"measurement": "vapor or sublimation pressure", "setting": "350.01 K", "value": "185.05 ± 3.8", "unit": "kPa"},
      {"measurement": "vapor or sublimation pressure", "setting": "360 K", "value": "241.64 ± 4.9", "unit": "kPa"},
      {"measurement": "vapor or sublimation pressure", "setting": "370 K", "value": "311.49 ± 6.3", "unit": "kPa"},
      {"measurement": "vapor or sublimation pressure", "setting": "380 K", "value": "395.69 ± 8", "unit": "kPa"},
      {"measurement": "vapor or sublimation pressure", "setting": "390 K", "value": "495.9 ± 10", "unit": "kPa"},
      {"measurement": "vapor or sublimation pressure", "setting": "400 K", "value": "614 ± 12", "unit": "kPa"}
    ]},
    {"smiles": "Cl[SiH2]Cl", "note": "[dichlorosilane]", "values": [
      {"measurement": "vapor or sublimation pressure", "setting": "299.99 K", "value": "214.5 ± 4.4 kPa [middle of 4 runs]"},
      {"measurement": "vapor or sublimation pressure", "setting": "300 K", "value": "216.5 ± 4.4 kPa and 212.1 ± 4.3 kPa and 214.2 ± 4.3 kPa"},
      {"measurement": "vapor or sublimation pressure", "setting": "309.99 K", "value": "284.3 ± 5.8", "unit": "kPa"},
      {"measurement": "vapor or sublimation pressure", "setting": "319.98 K", "value": "377.6 ± 7.7", "unit": "kPa"},
      {"measurement": "vapor or sublimation pressure", "setting": "319.99 K", "value": "377.9 ± 7.7", "unit": "kPa"},
      {"measurement": "vapor or sublimation pressure", "setting": "320 K", "value": "380.4 ± 7.7 kPa and 381.43 ± 7.8 kPa and 377.3 ± 7.7 kPa"},
      {"measurement": "vapor or sublimation pressure", "setting": "323.01 K", "value": "407.8 ± 8.3", "unit": "kPa"},
      {"measurement": "vapor or sublimation pressure", "setting": "329.99 K", "value": "485.8 ± 9.9", "unit": "kPa"},
      {"measurement": "vapor or sublimation pressure", "setting": "330.02 K", "value": "492.2 ± 10", "unit": "kPa"},
      {"measurement": "vapor or sublimation pressure", "setting": "339.99 K", "value": "626.4 ± 13 kPa [middle of 4 runs]"},
      {"measurement": "vapor or sublimation pressure", "setting": "340 K", "value": "628.6 ± 13", "unit": "kPa"},
      {"measurement": "vapor or sublimation pressure", "setting": "343.01 K", "value": "672.6 ± 14", "unit": "kPa"},
      {"measurement": "vapor or sublimation pressure", "setting": "349.99 K", "value": "784.7 ± 16 kPa and 786.4 ± 16 kPa and 789 ± 16 kPa"},
      {"measurement": "vapor or sublimation pressure", "setting": "350 K", "value": "785 ± 16", "unit": "kPa"},
      {"measurement": "vapor or sublimation pressure", "setting": "359.98 K", "value": "981.9 ± 20", "unit": "kPa"},
      {"measurement": "vapor or sublimation pressure", "setting": "359.99 K", "value": "985.9 ± 20 kPa [middle of 4 runs]"},
      {"measurement": "vapor or sublimation pressure", "setting": "362.99 K", "value": "1052.1 ± 21", "unit": "kPa"},
      {"measurement": "vapor or sublimation pressure", "setting": "369.98 K", "value": "1205 ± 24", "unit": "kPa"},
      {"measurement": "vapor or sublimation pressure", "setting": "369.99 K", "value": "1205 ± 24 kPa and 1209 ± 25 kPa"},
      {"measurement": "vapor or sublimation pressure", "setting": "379.99 K", "value": "1477 ± 30 kPa [middle of 5 runs]"},
      {"measurement": "vapor or sublimation pressure", "setting": "389.99 K", "value": "1779 ± 36 kPa and 1784 ± 36 kPa and 1780.5 ± 36 kPa"},
      {"measurement": "vapor or sublimation pressure", "setting": "399.99 K", "value": "2099 ± 43 kPa and 2138 ± 43 kPa"},
      {"measurement": "vapor or sublimation pressure", "setting": "409.98 K", "value": "2559 ± 52", "unit": "kPa"},
      {"measurement": "vapor or sublimation pressure", "setting": "410 K", "value": "2534 ± 51", "unit": "kPa"},
      {"measurement": "vapor or sublimation pressure", "setting": "419.99 K", "value": "3016 ± 61", "unit": "kPa"}
    ]},
    {"smiles": "Cl[SiH](Cl)Cl", "note": "[trichlorosilane]", "values": [
      {"measurement": "vapor or sublimation pressure", "setting": "310 K", "value": "121.89 ± 2.5", "unit": "kPa"},
      {"measurement": "vapor or sublimation pressure", "setting": "320 K", "value": "167.53 ± 3.4", "unit": "kPa"},
      {"measurement": "vapor or sublimation pressure", "setting": "330 K", "value": "225.35 ± 4.6", "unit": "kPa"},
      {"measurement": "vapor or sublimation pressure", "setting": "340 K", "value": "297.4 ± 6", "unit": "kPa"},
      {"measurement": "vapor or sublimation pressure", "setting": "350 K", "value": "385.6 ± 7.8", "unit": "kPa"},
      {"measurement": "vapor or sublimation pressure", "setting": "360 K", "value": "492.1 ± 10", "unit": "kPa"},
      {"measurement": "vapor or sublimation pressure", "setting": "370 K", "value": "619.6 ± 13", "unit": "kPa"},
      {"measurement": "vapor or sublimation pressure", "setting": "380 K", "value": "770.2 ± 16", "unit": "kPa"},
      {"measurement": "vapor or sublimation pressure", "setting": "380.5 K", "value": "778.2 ± 16", "unit": "kPa"},
      {"measurement": "vapor or sublimation pressure", "setting": "385 K", "value": "854.6 ± 17", "unit": "kPa"},
      {"measurement": "vapor or sublimation pressure", "setting": "390 K", "value": "946 ± 19", "unit": "kPa"},
      {"measurement": "vapor or sublimation pressure", "setting": "395 K", "value": "1044.2 ± 21", "unit": "kPa"}
    ]}
  ]
}
